From patent US7678390B2, “Carbon monoxide as a biomarker and therapeutic agent” (priority 1999, dated 2010)
Marks after values point to notes of the source that are not given here.

Legend:
[1] = system: IL-10(−/−) null mice given LPS; assay: LPS-induced serum TNF-α in IL-10(-/-) null mice; format: in vivo; settings: Mus musculus, IL-10(−/−) mice, CO 250 ppm, 1 h, read-out: inhibition of serum TNF-α levels
Description: (§1) Animals. Male C57BL/6 and IL-10 (−/−) mice were purchased from Jackson Laboratory (Bar Harbor, Me.), and allowed to acclimate for one week with rodent chow and water ad libitum. The MKK (−/−) mice were generated as previously described [Lu, et al., EMBO J. 18:1845-1857 (1999)]. Wild type littermates were used as controls. All animals were housed in accordance with guidelines from the American Association for Laboratory Animal Care and Research Protocols and were approved by the Animal Care and Use Committee of Yale University School of Medicine. Reagents. All reagents were purchased from Sigma Chemical Co. (St Louis, Mo.) unless specified otherwise. Plasmid Construct. Plasmid pSFFV/HO-1 was constructed by insertion of the rat HO-1 cDNA [Shibahara, et al., Proc. Natl. Acad. Sci. USA. 82: 7865-7869 (1985)] downstream of the Friend spleen focus-forming virus 5′ long-terminal repeat in the mammalian expression vector pSFFV/neo [Fuhlbrigge, et al, Proc. Natl. Acad. Sci. USA. 85: 5649-5653 (1988)] (kindly provided by Stanley Korsmeyer). Transfection. […] Gas samples were taken by the analyzer through a port in the top of the chambers at a rate of 1 L/min and analyzed by electrochemical detection, with a sensitivity of 10-600 ppm. Concentration levels were measured hourly and there were no fluctuations in the CO concentrations once the chamber had equilibrated (approximately 5 min). […]

[2] = system: mice given LPS (wild type); assay: LPS-induced serum cytokines in mice exposed to CO; format: in vivo, mouse
Description: (§2) Animals. Male C57BL/6 and IL-10 (−/−) mice were purchased from Jackson Laboratory (Bar Harbor, Me.), and allowed to acclimate for one week with rodent chow and water ad libitum. The MKK (−/−) mice were generated as previously described [Lu, et al., EMBO J. 18:1845-1857 (1999)]. Wild type littermates were used as controls. All animals were housed in accordance with guidelines from the American Association for Laboratory Animal Care and Research Protocols and were approved by the Animal Care and Use Committee of Yale University School of Medicine. Reagents. All reagents were purchased from Sigma Chemical Co. (St Louis, Mo.) unless specified otherwise. Plasmid Construct. Plasmid pSFFV/HO-1 was constructed by insertion of the rat HO-1 cDNA [Shibahara, et al., Proc. Natl. Acad. Sci. USA. 82: 7865-7869 (1985)] downstream of the Friend spleen focus-forming virus 5′ long-terminal repeat in the mammalian expression vector pSFFV/neo [Fuhlbrigge, et al, Proc. Natl. Acad. Sci. USA. 85: 5649-5653 (1988)] (kindly provided by Stanley Korsmeyer). Transfection. Stable transfections were carried out by the calcium phosphate precipitation technique as previously described [Alam, J., J. Biol. Chem. 269: 25049-25056 (1994)]. Briefly, RAW cells were plated (1×10^6/10 cm plate) and 16 h later, transfected with […] of pSFFV/neo or pSFFV/HO-1. Cells were exposed to the DNA-CaPO4 precipitate for 6 h, shocked by a 1 min treatment with glycerol in phosphate-buffered saline and cultured for an additional 24 h in complete medium before addition of G418. Transfectants were selected over a 3-week period in the presence of G418 (up to […]) and individual clones were isolated by limited dilution. Cell Culture Experimentation. RAW 264.7 mouse peritoneal macrophages were purchased from […] (Rockville, Md.) and primary culture of rat pulmonary vascular smooth muscle cells were harvested from male Sprague Dawley rats (250-300 g) as previously described [Gunther, et al., J. Cell. Biol. 92: 289-298 (1982).]. Both cell types were grown in DMEM containing 10% FBS and gentamicin ([…]) in a humidified atmosphere of 5% CO2/balanced air or 250 ppm CO/5% CO2/balanced air. After a 2 h pretreatment with either CO or air, LPS ([…]) or sterile saline was added to the culture media and the culture plates were returned to the chamber(s). At various time points, cell plates were removed from the chamber to collect media and/or cells for Western analysis. CO Exposures. Mice or macrophages were exposed to compressed air or 250 ppm CO. For cell culture experiments, 5% CO2 was also present for buffering requirements. CO at a concentration of 1% (10,000 ppm) in compressed air was mixed with compressed air with or without CO2 in a stainless steel mixing cylinder before delivery into the exposure chamber. Flow into the 3.70-ft^2 plexiglass animal chamber was maintained at 12 L/min and into the 1.2 ft^2 cell culture chamber at a flow of 2 L/min. The cell culture chamber was humidified and maintained at 37° C. A CO analyzer (Interscan, Chatsworth, Calif.) was used to measure CO levels continuously in the chambers. Gas samples were taken by the analyzer through a port in the top of the chambers at a rate of 1 L/min and analyzed by electrochemical detection, with a sensitivity of 10-600 ppm. Concentration levels were measured hourly and there were no fluctuations in the CO concentrations once the chamber had equilibrated (approximately 5 min). Animal Experimentation. Mice were prebled from the retroorbital sinus (0.25 ml) and then exposed to CO (250 ppm) or room air for 1 h prior to administration of LPS (1 mg/kg, i.p.), E. coli serotype O127:B8. 1 and 16 h thereafter, they were removed from the exposure apparatus individually and a blood sample was obtained via the retroorbital sinus. After the blood collection, the mice were immediately returned to the exposure chamber. […]

[3] = system: RAW 264.7 macrophages; assay: LPS-induced cytokine production in macrophages (ELISA, Western); format: cell-based, mouse; settings: for TNF-α: RAW 264.7 macrophages
Description: as §2

[4] = system: MKK3/MKK6; assay: LPS-induced activation of MKK3/MKK6 in RAW 264.7 cells; format: cell-based, mouse; settings: LPS in the presence of CO (data not shown)
Description: as §1

[5] = system: p38 MAP kinase; assay: LPS-induced MAP kinase activation, Western blot (p38); format: cell-based, mouse; settings: RAW 264.7 macrophages, LPS in the presence of CO
Description: as §1

Q: What does the source list for [C-]#[O+] [CO, carbon monoxide]?
A: inhibition at 250 ppm [1]: 66%; TNF-α or IL-10 production without LPS ([2]; CO (250 ppm) alone, MKK3(−/−) or wild type(+/+) mice): no effect; IL-10 in response to LPS in vivo ([2]; LPS 1 mg/kg, mice, CO 250 ppm): augmentation; EC50 for attenuation of LPS-induced TNF-α production in vivo ([2]; LPS 1 mg/kg, mice, dose-dependent): 69.9 ppm; LPS-induced TNF-α production in vivo ([2]; LPS 1 mg/kg, mice, in the presence of CO): significant attenuation; inhibition at 250 ppm ([2]; Mus musculus, wild type controls, LPS, CO 250 ppm, 1 h, read-out: inhibition of serum TNF-α levels): 73%; LPS-induced serum TNF-α production ([2]; wild type(+/+) littermates, LPS 1 mg/kg, 250 ppm CO): attenuated levels; LPS-induced IL-10 levels ([2]; wild type(+/+) mice, LPS 1 mg/kg, 250 ppm CO): augmented; LPS-induced TNF-α production (ELISA) ([3]; CO 250 ppm): significantly attenuated levels; LPS-induced MIP-2 ([3]; LPS, CO 250 ppm): not affecting; LPS-induced IFN-g ([3]; LPS, CO (data not shown)): not affecting; LPS-induced JE ([3]; LPS, CO (data not shown)): not affecting; LPS-induced KC ([3]; LPS, CO (data not shown)): not affecting; LPS-induced accumulation of IL-10 ([3]; LPS, CO at 250 ppm): significantly augmented; inhibition of TNF-α production in the media by ELISA ([3]; RAW 264.7 cells, LPS in the presence of CO): > 80%; TNF-α ([3]; with LPS): 230 ± 40^b pg/ml; TNF-α ([3]; without LPS): 15 ± 5 pg/mL; TNF-α protein expression by Western blot ([3]; cell lysates and media, LPS in the presence of CO): decreased TNF-α protein expression; MKK3/MKK6 activation by LPS [4]: augmentation; LPS-induced p38 MAP kinase activation [5]: significantly augmented
